Measured values: ChEMBL document CHEMBL2029336, “S-Adenosylhomocysteine hydrolase of the protozoan parasite Trichomonas vaginalis: potent inhibitory activity of 9-(2-deoxy-2-fluoro-β,D-arabinofuranosyl)adenine” (Bioorg Med Chem Lett, 2012)
The source made the active and inactive calls. The calls are words filed in the database; no cut-off is given here.

Legend:
Trichomonas vaginalis [1] = experiment: Growth inhibition of Trichomonas vaginalis T1 at 100 uM after 24 hrs by hemocytometry; format: functional; settings: for inhibition of growth at 100 µM: T1, 24 h, read-out: GI
Trichomonas vaginalis [2] = experiment: Growth inhibition of Trichomonas vaginalis T1 after 24 hrs by hemocytometry; format: functional, organism-based; settings: T1, 24 h
Trichomonas vaginalis [3] = experiment: Growth inhibition of mtronidazole-resistant Trichomonas vaginalis after 24 hrs by hemocytometry; format: functional, organism-based
CHO-K1 = experiment: Cytotoxicity against CHOK1 cells assessed as morphological changes at 100 uM after 48 hrs by microscopy; format: cell-based, Cricetulus griseus; settings: chinese hamster, cho-k1, 48 h

## CC(=O)O[C@H]1[C@@H](O)[C@H](n2ccc(=O)[nH]c2=O)O[C@@H]1CO
Trichomonas vaginalis [1]
  inhibition of growth at 100 µM: 22.8%

## O=c1ccn([C@@H]2O[C@H](C=C(Br)Br)[C@@H](O)[C@H]2O)c(=O)[nH]1
Trichomonas vaginalis [1]
  inhibition of growth at 100 µM: 12.2%

## Nc1ncnc2c1ncn2[C@@H]1O[C@H](CO)[C@H](F)[C@H]1O
Trichomonas vaginalis [1]
  inhibition of growth at 100 µM: 57.5%

## Nc1ncnc2c1ncn2[C@@H]1O[C@H](CO)[C@H]2O[C@H]21
Trichomonas vaginalis [1]
  inhibition of growth at 100 µM: 43%

## [N-]=[N+]=NC[C@H]1O[C@@H](n2cnc3c(N)ncnc32)[C@H](O)[C@@H]1O
Trichomonas vaginalis [2]
  IC50: 48.5 µM
Trichomonas vaginalis [1]
  inhibition of growth at 100 µM: 85.2%

## Nc1ncnc2c1ncn2[C@@H]1O[C@H](CO)[C@@H](F)[C@H]1O
Trichomonas vaginalis [2]
  IC50: 1.61 µM
Trichomonas vaginalis [1]
  inhibition of growth at 100 µM: 100%

## Nc1ncnc2c1ncn2[C@@H]1O[C@H](CCl)[C@@H](O)[C@H]1O
Trichomonas vaginalis [2]
  IC50: 53.3 µM
Trichomonas vaginalis [1]
  inhibition of growth at 100 µM: 88.9%

## Nc1ncnc2c1ncn2[C@H]1C[C@H](O)[C@@H](CO)O1 [DEOXYADENOSINE]
Trichomonas vaginalis [1]
  inhibition of growth at 100 µM: 48.7%

## Nc1ncnc2c1ncn2[C@@H]1O[C@H](COC(=O)c2ccccc2)[C@@H](O)[C@H]1O
Trichomonas vaginalis [1]
  inhibition of growth at 100 µM: 13.5%

## Nc1nc(N)c2ncn([C@@H]3O[C@H](CO)[C@@H](O)[C@H]3O)c2n1
Trichomonas vaginalis [2]
  IC50: 29.5 µM
Trichomonas vaginalis [1]
  inhibition of growth at 100 µM: 100%

## Nc1ncnc2c1ncn2[C@@H]1O[C@H](CSc2ccc(Cl)cc2)[C@@H](O)[C@H]1O
Trichomonas vaginalis [1]
  inhibition of growth at 100 µM: 51.2%

## COc1ccc(SC[C@H]2O[C@@H](n3cnc4c(N)ncnc43)[C@H](O)[C@@H]2O)cc1
Trichomonas vaginalis [1]
  inhibition of growth at 100 µM: 58%

## Cc1ncc([N+](=O)[O-])n1CCO [METRONIDAZOLE]
Trichomonas vaginalis [3]
  IC50: 0.21 µM

## O=C(Nc1ncnc2c1ncn2[C@@H]1O[C@H](CCl)[C@@H](O)[C@H]1O)c1ccccc1
Trichomonas vaginalis [1]
  inhibition of growth at 100 µM: 40.7%

## O=c1[nH]cnc2c1ncn2[C@@H]1O[C@H](CO)[C@@H](O)[C@H]1O [INOSINE]
Trichomonas vaginalis [1]
  inhibition of growth at 100 µM: 19.2%

## NC[C@H]1O[C@@H](n2cnc3c(NC(=O)c4ccccc4)ncnc32)[C@H](O)[C@@H]1O
Trichomonas vaginalis [1]
  inhibition of growth at 100 µM: 21.7%

## NC[C@H]1O[C@@H](n2cnc3c(N)ncnc32)[C@H](O)[C@@H]1O
Trichomonas vaginalis [1]
  inhibition of growth at 100 µM: 24.1%

## COc1ccc(SC[C@H]2O[C@@H](n3ccc(=O)[nH]c3=O)[C@H](O)[C@@H]2O)cc1
Trichomonas vaginalis [1]
  growth inhibition (GI): inactive

## O=c1ccn([C@@H]2O[C@H](CCl)[C@@H](O)[C@H]2O)c(=O)[nH]1
Trichomonas vaginalis [1]
  growth inhibition (GI): inactive

## Nc1c2ncn([C@@H]3O[C@H](CO)[C@@H](O)[C@H]3O)c2nc[n+]1[O-]
Trichomonas vaginalis [1]
  inhibition of growth at 100 µM: 37.7%

## Nc1ncnc2c1ncn2[C@@H]1O[C@H](CO)[C@@H](O)[C@H]1F [2'-BETA-FLUORO-2',3'-DEOXYADENOSINE]
Trichomonas vaginalis [2]
  IC50: 2.94 µM
Trichomonas vaginalis [1]
  inhibition of growth at 100 µM: 100%

## Nc1ncnc2c1ncn2[C@@H]1O[C@H](CO)[C@@H](O)[C@H]1O [ADENOSINE]
Trichomonas vaginalis [1]
  inhibition of growth at 100 µM: 49.7%

## O=c1ccn([C@H]2C[C@H](O)[C@@H](CI)O2)c(=O)[nH]1
Trichomonas vaginalis [1]
  inhibition of growth at 100 µM: 21.2%

## O=c1ccn([C@@H]2O[C@H](CSc3ccccc3)[C@@H](O)[C@H]2O)c(=O)[nH]1
Trichomonas vaginalis [1]
  growth inhibition (GI): inactive

## Nc1ncnc2c1ncn2[C@@H]1O[C@H](CO)C[C@H]1O [CORDYCEPIN]
Trichomonas vaginalis [1]
  inhibition of growth at 100 µM: 94.1%

## CC(C)CSC[C@H]1O[C@@H](n2cnc3c(N)ncnc32)[C@H](O)[C@@H]1O
Trichomonas vaginalis [1]
  inhibition of growth at 100 µM: 44.9%

## Nc1ncnc2c1ncn2[C@@H]1O[C@H](CO)[C@@H](O)[C@@H]1Cl
Trichomonas vaginalis [2]
  IC50: 5.93 µM
Trichomonas vaginalis [1]
  inhibition of growth at 100 µM: 100%

## Nc1ncnc2c1ncn2[C@@H]1O[C@H](CO)[C@@H](O)[C@@H]1O [VIDARABINE]
Trichomonas vaginalis [2]
  IC50: 3.6 µM
Trichomonas vaginalis [1]
  inhibition of growth at 100 µM: 100%

## CCCSS[C@@H]1[C@H](O)[C@@H](CO)O[C@H]1n1cnc2c(N)ncnc21
Trichomonas vaginalis [1]
  inhibition of growth at 100 µM: 43%

## Nc1ncnc2c1ncn2[C@@H]1O[C@H](CO)[C@@H](O)[C@@H]1F
Trichomonas vaginalis [2]
  IC50: 0.09 µM
Trichomonas vaginalis [1]
  inhibition of growth at 100 µM: 99.6%
CHO-K1
  Activity: Non-toxic
Trichomonas vaginalis [3]
  IC50: 100 µM

## CCCSS[C@H]1[C@H](O)[C@@H](CO)O[C@H]1n1cnc2c(N)ncnc21
Trichomonas vaginalis [1]
  inhibition of growth at 100 µM: 66.8%

## CCCSS[C@H]1[C@H](O)[C@@H](CO)O[C@H]1n1cnc2c(N)nc(N)nc21
Trichomonas vaginalis [1]
  inhibition of growth at 100 µM: 6.2%

## N[C@@H]1[C@H](O)[C@@H](CO)O[C@H]1n1ccc(=O)[nH]c1=O
Trichomonas vaginalis [1]
  inhibition of growth at 100 µM: 18.4%
